What was measured:
Format in all cases: cell-based
Escherichia coli [1] = test: In vitro suspension kill test, 1 minute contact at 37° C., survivors plated (Examples 1, 5); conditions: 1 minute at 37° C.
Procedure: (§1) A set of in vitro tests was run on Staphylococcus aureus, Escherichia coli, Streptococcus agalactiae, Streptococcus uberis, Staphylococcus epidermidis, and Pseudomonas aeruginosa. A culture of the microorganism was first prepared according to the following procedure. Six to ten milliliters of trypticase soy broth was inoculated with the organism under consideration from a frozen or refrigerated stock. After incubation for five to seven hours at 37° C., the culture was transferred to a flask containing trypticase soy broth. The culture in the flask was then incubated on a gyratory shaker at approximately 1500 rpm overnight at 37° C. The next day, the culture in the flask is washed once in phosphate buffered saline solution (PBS) and stored at approximately 4° C. until needed. […]
(§2) The surviving bacteria suspended in quencher solution were then diluted with PBS and plated on appropriate media, for example, MacConkey for Escherichia coli, Staph 110 for Staphylococcus, and trypticase soy agar with 6% Sheep's blood for Streptococcus. The plates were incubated 24 to 48 hours at 37° C. and counted. The surviving organisms were expressed as colony forming units (CFU)/ml, and compared to the negative control as percent survival. […]

Staphylococcus aureus [2] = test: In vitro suspension kill test, 1 minute contact at 37° C., survivors plated (Examples 1, 4, 5); conditions: 1 minute at 37° C.
Procedure: as §1, §2

Pseudomonas aeruginosa = test: In vitro suspension kill test, 1 minute contact at 37° C., survivors plated (Example 1); conditions: diluted with organic load (1:1 with whole milk)
Procedure: (§3) A set of in vitro tests was run on Staphylococcus aureus, Escherichia coli, Streptococcus agalactiae, Streptococcus uberis, Staphylococcus epidermidis, and Pseudomonas aeruginosa. A culture of the microorganism was first prepared according to the following procedure. Six to ten milliliters of trypticase soy broth was inoculated with the organism under consideration from a frozen or refrigerated stock. After incubation for five to seven hours at 37° C., the culture was transferred to a flask containing trypticase soy broth. The culture in the flask was then incubated on a gyratory shaker at approximately 1500 rpm overnight at 37° C. The next day, the culture in the flask is washed once in phosphate buffered saline solution (PBS) and stored at approximately 4° C. until needed.
(§4) To test a specific antimicrobial's efficacy, ten milliliters of the culture was transferred to a 15 milliliter centrifuge tube and centrifuged at approximately 600 to 700 g for approximately five to ten minutes. After decanting the supernatant, ten milliliters of the antimicrobial (or PBS in the negative, or untreated, control) was added, and the centrifuge tube vortexed to suspend the bacteria. In those tests involving “organic loads”, a 1:1 dilution of the antimicrobial with whole milk was made before addition to the cultured microorganism to simulate conditions the product may have to experience in a real life environment, such as on a cow's teat.
(§5) The tube was then placed in a 37° C. water bath for 1 minute. The tube was centrifuged again at approximately 600 to 700 g for approximately five to ten minutes, and the supernatant decanted. The remaining precipitate was then suspended in a quencher solution containing letheen broth, 1% sodium thiosulfate and 0.2 mM CaCl2. The tube was centrifuged at approximately 600 to 700 g for approximately five to ten minutes, decanted and washed a second time in the quencher solution.
(§6) The surviving bacteria suspended in quencher solution were then diluted with PBS and plated on appropriate media, for example, MacConkey for Escherichia coli, Staph 110 for Staphylococcus, and trypticase soy agar with 6% Sheep's blood for Streptococcus. The plates were incubated 24 to 48 hours at 37° C. and counted. The surviving organisms were expressed as colony forming units (CFU)/ml, and compared to the negative control as percent survival.

[3] = system: Staphylococcus epidermidis; test: as above; conditions: diluted with organic load (1:1 with whole milk)
Procedure: as §3, §4, §5, §6

Streptococcus uberis = test: as above; conditions: diluted with organic load (1:1 with whole milk)
Procedure: as §3, §4, §5, §6

Streptococcus agalactiae = test: as above; conditions: diluted with organic load (1:1 with whole milk)
Procedure: as §3, §4, §5, §6

Staphylococcus aureus [4] = test: Excised dairy cow teat dip test (Example 2); conditions: Staphylococcus aureus on excised cow teats; dipped, drained ten minutes; log mean CFU/ml vs negative control
Procedure: (§7) Another set of in vitro tests were run on Staphylococcus aureus, Escherichia coli, and Streptococcus uberis. A culture of the microorganism was first prepared according to the following procedure. Six to ten milliliters of trypticase soy broth was inoculated with the organism under consideration from a frozen or refrigerated stock. After incubation for five to seven hours at 37° C., the culture was transferred to a flask containing 200 milliliters of trypticase soy broth. The culture in the flask was then incubated on a gyratory shaker at approximately 1500 rpm overnight at 37° C. The next day, the culture in the flask is washed once in PBS or 0.1% protease peptone, and stored at approximately 4° C. until required.
(§8) The tests were run using dairy cow teats which had been obtained from a slaughter house. The teats were cut off at their connection to the udder, cleaned, and all hair was removed by using an open flame. The teats selected for the testing were screened for lesions, cuts, scars or other abnormalities. The teats were stored until needed in plastic bags in ice at a temperature below freezing. […]
(§9) Countable dilutions were plated on appropriate media, and incubated from 24 to 48 hours at 37° C. The colonies were counted macroscopically with the aid of fluorescent light. Non-typical colonies were not counted. […]

Escherichia coli [5] = test: Excised dairy cow teat dip test (Example 2); conditions: Escherichia coli on excised cow teats; dipped, drained ten minutes; log mean CFU/ml vs negative control
Procedure: as §7, §8, §9

[6] = diluted with organic load (1:1 with whole milk)

Compound: [O][Cl+][O-] [chlorine dioxide]
- Percent Survival (Escherichia coli [1]; [6]): 0%
- Percent Survival (Escherichia coli [1]; undiluted antimicrobial): 0%
- Percent Survival (Staphylococcus aureus [2]; [6]): 16.96%
- Percent Survival (Staphylococcus aureus [2]; undiluted antimicrobial, CFU/ml compared to negative control): 0%
- Percent Survival (Pseudomonas aeruginosa): 0%
- Percent Survival [3]: 5%
- Percent Survival (Streptococcus uberis): 5.19%
- Percent Survival (Streptococcus agalactiae): 0%
- Percent Log Reduction (Staphylococcus aureus [4]): 33.90%
- Percent Log Reduction (Escherichia coli [5]): 22%
